The first test has as its system YAP/TAZ-TEAD transcription. The test is described as follows: Reporter gene assay for measuring the inhibition of YAP/TAZ-TEAD transcription (TEAD-responsive element luciferase reporter in Hek293T cells). In kind it is cell-based. The note with it: Hek293T cells transiently transfected with TEAD-responsive element luciferase reporter; 24 hours incubation. How it is done: Hek293T cells are cultured in DMEM supplemented with 10% fetal bovine serum, Sodium pyruvate, Sodium bicarbonate, L-glutamine. The cells are harvested and transiently transfected with TEAD-responsive element luciferase reporter. Transfected cells are plated in 384-wells plate containing pre-diluted compounds. After 24 hours incubation at 37° C./5% CO2, assay plates were cooled down to RT and levelled to an equal volume per well, prior to the addition of 25 uL luciferase substrate SteadyLite (Perkin Elmer)/well. The plate was shaken for 10 min at 600 rpm, centrifuged for 1 min at 500 rpm and measured with an Envision reader (PerkinElmer). The amount of relative light units produced by the TEAD reporter is used to calculated percent of inhibition. The percent of reporter inhibition was calculated in the presence of a positive control inhibitor (100% inhibition) versus a condition with the presence of the vehicle basal activity of the reporter (0% inhibition). The ability of a test compound to inhibit this activity was determined as: Percentage inhibition=[[…]((RLU determined in the presence of vehicle−RLU determined for sample with test compound present) divided by (RLU determined in the presence of vehicle−RLU determined for sample with positive control inhibitor))]*100
The activities of example compounds tested are depicted in the table below. The activity ranges A, B and C refer to IC50 values in the reporter gene assay as follows: “A”: IC50<1 μM; “B”: 1 μM≤IC50≤20 μM and “C”: IC50>20 μM; NT=not tested.
In general terms: A reporter such as luciferase makes a cellular process visible.
On to `C=CC(=O)NCC1Cc2c(CC(=O)O)cccc2N(c2ccc(C(F)(F)F)cc2)C1` (stereo not shown) [Cpd. No. 161, 2-(3-(acrylamidomethyl)-1-(4-(trifluoromethyl)phenyl)-1,2,3,4-tetrahydroquinolin-5-yl)acetic acid], for which the IC50 (as a rule, the concentration that gives 50% inhibition) lay in the range of 1 to 20 µM.

As for `C=CC(=O)NCC1Cc2c(CC(=O)O)cccc2N(c2ccc(C(F)(F)F)cc2)C1` (stereo not shown) [Cpd. No. 161-En1, 2-(3-(acrylamidomethyl)-1-(4-(trifluoromethyl)phenyl)-1,2,3,4-tetrahydroquinolin-5-yl)acetic acid], the IC50 was greater than 20 µM.

`C=CC(=O)NCC1Cc2c(CC(=O)O)cccc2N(c2ccc(C(F)(F)F)cc2)C1` (stereo not shown) [Cpd. No. 161-En2, 2-(3-(acrylamidomethyl)-1-(4-(trifluoromethyl)phenyl)-1,2,3,4-tetrahydroquinolin-5-yl)acetic acid]: the IC50 fell in the range of 1 to 20 µM.

For the molecule `C=CC(=O)NCC1Cc2c(Cc3noc(=O)[nH]3)cccc2N(c2ccc(C(F)(F)F)cc2)C1` (stereo not shown) [Cpd. No. 168-En1, N-((5-((5-oxo-4,5-dihydro-1,2,4-oxadiazol-3-yl)methyl)-1-(4-(trifluoromethyl)phenyl)-1,2,3,4-tetrahydroquinolin-3-yl)methyl)acrylamide], the IC50 was in the range of 1 to 20 µM.

Molecule `C=CC(=O)NCC1Cc2c(Cc3noc(=O)[nH]3)cccc2N(c2ccc(C(F)(F)F)cc2)C1` (stereo not shown) [Cpd. No. 168-En2, N-((5-((5-oxo-4,5-dihydro-1,2,4-oxadiazol-3-yl)methyl)-1-(4-(trifluoromethyl)phenyl)-1,2,3,4-tetrahydroquinolin-3-yl)methyl)acrylamide] gave an IC50 of less than 1 µM.

The same test, now with this note: Homo sapiens, HEK-293T, 24 h, Hek293T cells transiently transfected with TEAD-responsive element luciferase reporter; 24 hours incubation.
As to `C=CC(=O)NCC1Cc2c(C(=O)NS(=O)(=O)C3CC3)cccc2N(c2ccc(C(F)(F)F)cc2)C1` (stereo not shown) [Cpd. No. 158, 3-(acrylamidomethyl)—N-(cyclopropylsulfonyl)-1-(4-(trifluoromethyl)phenyl)-1,2,3,4-tetrahydroquinoline-5-carboxamide], the IC50 was greater than 20 µM.

`C=CC(=O)NCC1Cc2c(Cc3noc(=O)[nH]3)cccc2N(c2ccc(C(F)(F)F)cc2)C1` (stereo not shown) [Cpd. No. 168, N-((5-((5-oxo-4,5-dihydro-1,2,4-oxadiazol-3-yl)methyl)-1-(4-(trifluoromethyl)phenyl)-1,2,3,4-tetrahydroquinolin-3-yl)methyl)acrylamide] came in with an IC50 of less than 1 µM.

In turn, `C=CC(=O)NC1Cc2c(C(=O)NC#N)cccc2N(c2ccc(C(F)(F)F)cc2)C1` (stereo not shown) [Cpd. No. 169, 3-acrylamido-N-cyano-1-(4-(trifluoromethyl)phenyl)-1,2,3,4-tetrahydroquinoline-5-carboxamide] had an IC50 greater than 20 µM.

Molecule `C=CC(=O)NC1Cc2ccccc2N(C(=O)C2CCCCC2)C1` (stereo not shown) [Cpd. No. 173, N-(1-(cyclohexanecarbonyl)-1,2,3,4-tetrahydroquinolin-3-yl)acrylamide] had an IC50 greater than 20 µM.

As to `C=CC(=O)NC1Cc2ccccc2N(Cc2ccccc2)C1` (stereo not shown) [Cpd. No. 174, N-(1-benzyl-1,2,3,4-tetrahydroquinolin-3-yl)acrylamide], the IC50 is less than 1 µM.

Molecule `C=CC(=O)NC1Cc2ccccc2N(CC2CCCCC2)C1` (stereo not shown) [Cpd. No. 175, N-(1-(cyclohexylmethyl)-1,2,3,4-tetrahydroquinolin-3-yl)acrylamide] came in with an IC50 of less than 1 µM.

As for `C=CC(=O)NCC1CCc2ccccc2N1c1ccc(C(F)(F)F)cc1` (stereo not shown) [Cpd. No. 178, N-((1-(4-(trifluoromethyl)phenyl)-1,2,3,4-tetrahydroquinolin-2-yl)methyl)acrylamide], the concentration for half-maximal inhibition (IC50) was less than 1 µM.

The molecule `CC(=O)NC/C=C/C(=O)NCC1Cc2ccccc2N(c2ccc(C(F)(F)F)cc2)C1` (stereo not shown) [Cpd. No. 193, (E)-4-acetamido-N-((1-(4-(trifluoromethyl)phenyl)-1,2,3,4-tetrahydroquinolin-3-yl)methyl)but-2-enamide] showed an IC50 of less than 1 µM.

`C=CC(=O)NC1Cc2ccccc2N(c2ccccc2)C1` (stereo not shown) [compound 002, N-(1-phenyl-1,2,3,4-tetrahydroquinolin-3-yl)acrylamide] yielded a 50% inhibitory concentration (IC50) of less than 1 µM.

`C=CC(=O)NC1Cc2ccccc2N(c2cccc(C(F)(F)F)c2)C1` (stereo not shown) [compound 003, N-(1-(3-(trifluoromethyl)phenyl)-1,2,3,4-tetrahydroquinolin-3-yl)acrylamide] came in with an IC50 of less than 1 µM.

Molecule `C=CC(=O)NC1Cc2ccccc2N(c2ccc(C(C)C)cc2)C1` (stereo not shown) [compound 004, N-(1-(4-isopropylphenyl)-1,2,3,4-tetrahydroquinolin-3-yl)acrylamide] yielded an IC50 of less than 1 µM.

Molecule `C=CC(=O)NC1Cc2ccccc2N(c2cccc(C(C)C)c2)C1` (stereo not shown) [compound 005, N-(1-(3-isopropylphenyl)-1,2,3,4-tetrahydroquinolin-3-yl)acrylamide] yielded an IC50 of less than 1 µM.

On to `C=CC(=O)NC1Cc2ccccc2N(c2cccc(OC)c2)C1` (stereo not shown) [compound 006, N-(1-(3-methoxyphenyl)-1,2,3,4-tetrahydroquinolin-3-yl)acrylamide], for which the IC50 is less than 1 µM.

In turn, `C=CC(=O)NC1Cc2ccccc2N(c2ccc(OC)cc2)C1` (stereo not shown) [compound 007, N-(1-(4-methoxyphenyl)-1,2,3,4-tetrahydroquinolin-3-yl)acrylamide] came in with an IC50 of less than 1 µM.

The molecule `C=CC(=O)NC1Cc2ccccc2N(c2ccc(-c3ccccc3)cc2)C1` (stereo not shown) [compound 008, N-(1-([1,1′-biphenyl]-4-yl)-1,2,3,4-tetrahydroquinolin-3-yl)acrylamide] yielded an IC50 of less than 1 µM.

In turn, `C=CC(=O)NC1Cc2ccccc2N(c2cccc(-c3ccccc3)c2)C1` (stereo not shown) [compound 009, N-(1-([1,1′-biphenyl]-3-yl)-1,2,3,4-tetrahydroquinolin-3-yl)acrylamide] returned an IC50 of 1 to 20 µM.

In turn, `C=CC(=O)NC1Cc2ccccc2N(c2ccc(C(F)(F)F)nc2)C1` (stereo not shown) [compound 010, N-(1-(6-(trifluoromethyl)pyridin-3-yl)-1,2,3,4-tetrahydroquinolin-3-yl)acrylamide] displayed an IC50 of less than 1 µM.

Molecule `C=CC(=O)NC1Cc2ccccc2N(c2ccc(C(F)(F)F)cn2)C1` (stereo not shown) [compound 011, N-(1-(5-(trifluoromethyl)pyridin-2-yl)-1,2,3,4-tetrahydroquinolin-3-yl)acrylamide] showed an IC50 of less than 1 µM.

In turn, `C=CC(=O)NC1Cc2ccccc2N(c2ccnc(C(F)(F)F)c2)C1` (stereo not shown) [compound 012, N-(1-(2-(trifluoromethyl)pyridin-4-yl)-1,2,3,4-tetrahydroquinolin-3-yl)acrylamide] showed an IC50 of 1 to 20 µM.

Take `C=CC(=O)NC1Cc2ccccc2N(C2CCCCC2)C1` (stereo not shown) [compound 013, N-(1-cyclohexyl-1,2,3,4-tetrahydroquinolin-3-yl)acrylamide]: the IC50 is less than 1 µM.

In turn, `C=CC(=O)NC1Cc2ccccc2N(c2ccc(C(=O)NC)cc2)C1` (stereo not shown) [compound 014, 4-(3-acrylamido-3,4-dihydroquinolin-1(2H)-yl)-N-methylbenzamide] registered an IC50 of 1 to 20 µM.

In turn, `C=CC(=O)NC1Cc2ccccc2N(c2cccc(NC(C)=O)c2)C1` (stereo not shown) [compound 015, N-(1-(3-acetamidophenyl)-1,2,3,4-tetrahydroquinolin-3-yl)acrylamide] came in with an IC50 of 1 to 20 µM.

Take `C=CC(=O)NC1Cc2ccccc2N(c2ccc3[nH]ccc3c2)C1` (stereo not shown) [compound 016, N-(1-(1H-indol-5-yl)-1,2,3,4-tetrahydroquinolin-3-yl)acrylamide]: the IC50 lay in the range of 1 to 20 µM.

The molecule `C=CC(=O)NC1Cc2ccccc2N(c2ccc3cc[nH]c3c2)C1` (stereo not shown) [compound 017, N-(1-(1H-indol-6-yl)-1,2,3,4-tetrahydroquinolin-3-yl)acrylamide] gave a half-inhibitory concentration (IC50) of less than 1 µM.

In turn, `C=CC(=O)NC1Cc2ccccc2N(c2ccc(F)c(F)c2)C1` (stereo not shown) [compound 018, N-(1-(3,4-difluorophenyl)-1,2,3,4-tetrahydroquinolin-3-yl)acrylamide] came in with an IC50 of less than 1 µM.

`C=CC(=O)NC1Cc2ccccc2N(c2ccc(C3CCCCC3)cc2)C1` (stereo not shown) [compound 019, N-(1-(4-cyclohexylphenyl)-1,2,3,4-tetrahydroquinolin-3-yl)acrylamide] showed an IC50 of less than 1 µM.

For the molecule `C=CC(=O)NC1Cc2ccccc2N(c2ccc(C(F)F)cc2)C1` (stereo not shown) [compound 020, N-(1-(4-(difluoromethyl)phenyl)-1,2,3,4-tetrahydroquinolin-3-yl)acrylamide], the IC50 was less than 1 µM.

In turn, `C=CC(=O)NC1Cc2ccccc2N(c2ccc(OC(F)F)cc2)C1` (stereo not shown) [compound 022, N-(1-(4-(difluoromethoxy)phenyl)-1,2,3,4-tetrahydroquinolin-3-yl)acrylamide] yielded an IC50 of less than 1 µM.

Take `C=CC(=O)NC1Cc2ccccc2N(c2cccc(F)c2)C1` (stereo not shown) [compound 024, N-(1-(3-fluorophenyl)-1,2,3,4-tetrahydroquinolin-3-yl)acrylamide]: the IC50 is less than 1 µM.

In turn, `C=CC(=O)NC1Cc2ccccc2N(c2cccc(F)c2F)C1` (stereo not shown) [compound 025, N-(1-(2,3-difluorophenyl)-1,2,3,4-tetrahydroquinolin-3-yl)acrylamide] yielded a 50% inhibitory concentration (IC50) of less than 1 µM.

`C=CC(=O)NC1Cc2ccccc2N(c2cc(F)ccc2F)C1` (stereo not shown) [compound 026, N-(1-(2,5-difluorophenyl)-1,2,3,4-tetrahydroquinolin-3-yl)acrylamide] came in with an IC50 of less than 1 µM.

Molecule `C=CC(=O)NC1Cc2ccccc2N(c2cc(F)cc(F)c2)C1` (stereo not shown) [compound 027, N-(1-(3,5-difluorophenyl)-1,2,3,4-tetrahydroquinolin-3-yl)acrylamide] registered a 50% inhibitory concentration (IC50) of less than 1 µM.

Values taken from patent US20240025856A1, “1,2,3,4-TETRAHYDROQUINOLINE DERIVATIVES AS INHIBITORS OF THE YAP/TAZ-TEAD ACTIVATION FOR TREATING CANCER” (KATHOLIEKE UNIVERSITEIT LEUVEN, priority 2020, published 2024).
